Measured values as given in patent US9718840B2, “Condensed 5-oxazolidinone derivative” (SUMITOMO DAINIPPON PHARMA CO., LTD., priority 2014, dated 2017).
Where two headings read alike, the source gives them in different places. One block for each compound: values may come before it.

How the values were obtained:
[1] = system: Rabbit nail bleeding models; experiment: Bleeding time evaluation test using rabbit nail bleeding model; format: in vivo; details: for Bleeding time: Experiment 1 (maximum 30 minutes), rabbit; for Bleeding time (fold-increase): Experiment 1, ratio to vehicle group average
Procedure: Rabbit nail bleeding models were prepared by a modification of the report of Wong et al. (Wong P C. et al., J. Thromb. Haemost. 7: 1313-1320 (2009)). Male rabbits (JW, 1.5 to 3.5 kg) were anesthetized by the inhalation of isoflurane (ISOFLU®, manufactured by DS Pharma Animal Health Co., Ltd.) (introduced anesthesia: 4%, continuous anesthesia: 2 to 3%).
For the intravenous administration of a test drug or a vehicle, an indwelling needle was inserted to the auricular vein, and the test drug or the vehicle was promptly intravenously administered (0.67 mL/kg) and then continuously intravenously administered (1 mL/kg/hr). One hour after the start of administration, three posterior toenails were cut and dipped in saline heated to approximately 37° C., and the bleeding time was measured. The bleeding time was defined as a time from the cutting to the arrest of bleeding, and an average value from the three nails was used. The measurement time was 30 minutes at the maximum for experiment 1 and 60 minutes at the maximum for experiment 2. In each experiment, if bleeding for 30 minutes or 60 minutes or longer was confirmed, the bleeding time was regarded as 30 minutes or 60 minutes.

[2] = system: Rabbit venous thrombus models; experiment: In vivo antithrombotic effect evaluation test using rabbit (arteriovenous shunt); details: prompt i.v. + continuous i.v.
Procedure: Rabbit venous thrombus models were prepared by a modification of the report of Wong et al. (Wong P C. et al., J. Pharmacol. Exp. Ther. 292: 351-357 (2000)). Male rabbits (JW, 2 to 4 kg) were anesthetized by the inhalation of isoflurane (ISOFLU®, manufactured by DS Pharma Animal Health Co., Ltd.) (introduced anesthesia: 4%, continuous anesthesia: 1.5 to 2.5%). A tracheostomy tube was inserted to each rabbit, which was then ventilated using a respirator. For the intravenous administration of a test drug and blood collection, catheters were inserted to the right femoral vein and the right femoral artery, respectively. An arteriovenous shunt filled with saline was inserted to the carotid artery and the jugular vein. The arteriovenous shunt was prepared by connecting Atom extension tubes (4Fr) having lengths of 15 cm and 13 cm to the artery side and the vein side, respectively, of a polyethylene tube (length: 60 cm, outside diameter: 11.1 mm, inside diameter: 7.9 mm). Also, 4-0 silk thread having a length of 5 cm was indwelled in the arteriovenous shunt. Blood was sent for 30 minutes from the carotid artery to the jugular vein via the arteriovenous shunt. The shunt was removed, and the weight of the silk thread covered with thrombus was measured. The weight of the silk thread measured before the experiment was subtracted from the measured weight, and the obtained value was used as a wet thrombus weight. One hour before the open of the arteriovenous shunt, the test drug or a vehicle was promptly intravenously administered (0.67 mL/kg) and then continuously intravenously administered (1 mL/kg/hr). The continuous injection was continued throughout the experiment. Further, an existing anticoagulant dabigatran (antithrombin drug) and rivaroxaban (FXa inhibitor) were tested as control drugs.
In order to measure aPTT of blood samples as an index for the intrinsic coagulation pathway, blood was collected before administration and immediately before cessation of blood flow, and plasma was prepared using 3.2% sodium citrate. After incubation at 37° C. for 6 minutes, an STA reagent Cephascreen (for aPTT assay; manufactured by Roche Diagnostics K.K.) was added in an amount equal thereto, and the mixture was further incubated for 4 minutes. STA calcium chloride (manufactured by Roche Diagnostics K.K.) was added in an amount equal thereto, and the time required for coagulation was measured.
In order to measure prothrombin time (PT) of blood samples as an index for the extrinsic coagulation pathway, blood was collected before administration and immediately before cessation of blood flow, and plasma was prepared using 3.2% sodium citrate. After incubation at 37° C. for 10 minutes, Neoplastin Plus (for PT assay; manufactured by Roche Diagnostics K.K.) was added in a double amount, and the time required for coagulation was measured.

[3] = Ester metabolism stability test: stability in human liver; format: in vitro ADME; details: 37° C., 20 minutes, with NADPH
Procedure: A reaction solution containing 5 μL of human liver S9 (manufactured by Sekisui XenoTech, LLC, 20 mg/mL) mixed with 20 μL of 500 mmol/L Kpi (pH 7.4), 40 μL of a 5 mmol/L aqueous solution of NADPH (manufactured by Oriental Yeast Co., Ltd.), and 133 μL of ion-exchange water was added to 2 μL of a DMSO solution containing a 100 μmol/L test substance, and the mixture was incubated at 37° C. for 20 minutes. After the incubation, the metabolic reaction was terminated by the addition of 600 μL of acetonitrile.

[4] = Ester metabolism stability test: metabolite identification by LC-MS
Text: The metabolites were identified using LC (LC-Nexera X2 manufactured by Shimadzu Corp.)-MS (API4000 manufactured by AB Sciex Pte Ltd.).

human plasma = experiment: Ester metabolism stability test: stability in human plasma; format: in vitro ADME; details: 37° C., 20 minutes
Procedure: 198 μL of human plasma (manufactured by Cosmo Bio Inc.) was added to 2 μL of a DMSO solution containing a 100 μmol/L test substance, and the mixture was incubated at 37° C. for 20 minutes. After the incubation, the metabolic reaction was terminated by the addition of 600 μL of acetonitrile.

Human FXIa = Human FXIa (Homo sapiens, UniProt P03951); experiment: In vitro activated factor XI (FXIa) inhibition test; format: biochemical; set-up: purchased Enzyme Research Laboratories
Human FXIa, sequence (P03951 388-625 limits assumed): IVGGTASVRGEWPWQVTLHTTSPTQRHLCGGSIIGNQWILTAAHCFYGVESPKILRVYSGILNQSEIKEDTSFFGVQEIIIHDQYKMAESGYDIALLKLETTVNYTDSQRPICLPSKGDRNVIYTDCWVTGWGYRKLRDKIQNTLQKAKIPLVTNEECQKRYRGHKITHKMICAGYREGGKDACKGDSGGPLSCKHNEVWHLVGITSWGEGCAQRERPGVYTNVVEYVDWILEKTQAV
Human FXIa, sequence (P03951 19-387 partner limits assumed): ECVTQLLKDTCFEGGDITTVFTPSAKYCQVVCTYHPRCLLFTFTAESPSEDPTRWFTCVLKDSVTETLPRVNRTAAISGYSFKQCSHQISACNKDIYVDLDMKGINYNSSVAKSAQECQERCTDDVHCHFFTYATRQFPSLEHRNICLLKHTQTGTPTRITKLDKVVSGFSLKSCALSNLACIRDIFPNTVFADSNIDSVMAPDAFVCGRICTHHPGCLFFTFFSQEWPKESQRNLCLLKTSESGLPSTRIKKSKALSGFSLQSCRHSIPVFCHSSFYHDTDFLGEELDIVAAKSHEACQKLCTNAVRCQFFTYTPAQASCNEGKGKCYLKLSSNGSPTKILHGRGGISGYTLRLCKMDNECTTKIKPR

[5] = dose 0.03 + 0.045 mg/kg + mg/kg/h i.v.
[6] = dose 0.1 + 0.15 mg/kg + mg/kg/h i.v.
[7] = dose 0.3 + 0.45 mg/kg + mg/kg/h i.v.
[8] = dose 0.01 + 0.015 mg/kg + mg/kg/h
[9] = dose 0.03 + 0.045 mg/kg + mg/kg/h
[10] = dose 0.1 + 0.15 mg/kg + mg/kg/h
[11] = metabolites identified using LC-MS
[12] = substrate S-2366, 37° C., 10 minutes, read-out: FXIa Inhibition activity IC50

SMILES: CCCCCCOC(=O)NC(=N)c1ccc(NCc2nc3cc(C(=O)N(CCC(=O)OCC)c4ccccn4)ccc3n2C)cc1 [Dabigatran etexilate]
- Bleeding time [1, 5]: 1276 ± 353 s
- Bleeding time [1, 6]: 1800 ± 0 s
- Bleeding time [1, 7]: 1800 ± 0 s
- Bleeding time (fold-increase) [1, 5]: 2.7 ± 0.7 fold-increase
- Bleeding time (fold-increase) [1, 6]: 3.8 ± 0.0 fold-increase
- Bleeding time (fold-increase) [1, 7]: 3.8 ± 0.0 fold-increase
- PT (ratio) [2, 8]: 1.07 ± 0.02 ratio
- Thrombus weight [2, 8]: 62 ± 18 mg
- aPTT (ratio) [2, 8]: 1.28 ± 0.07 ratio
- PT (ratio) [2, 9]: 1.23 ± 0.10 ratio
- Thrombus weight [2, 9]: 32 ± 9 mg
- aPTT (ratio) [2, 9]: 1.58 ± 0.15 ratio
- PT (ratio) [2, 10]: 2.29 ± 0.29 ratio
- Thrombus weight [2, 10]: 12 ± 4 mg
- aPTT (ratio) [2, 10]: 2.34 ± 0.12 ratio

SMILES: CC1(C)OC(=O)c2cc3cc(NC(=O)[C@@H]4[C@H](C5CCCCC5)CCN4C(=O)[C@H]4CC[C@H]([C@H](N)CF)CC4)ccc3n21.Cl [Example 1, (2S,3S)-1-({trans-4-[(1S)-1-Amino-2-fluoroethyl]cyclohexyl}carbonyl)-N-(3,3-dimethyl-1-oxo-1H-[1,3]oxazolo[3,4-a]indol-7-yl)-3-cyclohexylpyrrolidine-2-carboxamide hydrochloride]
- Residual rate (%) Human liver S9 [3]: 87%
- Metabolite formed (conversion by metabolism) [4, 11]: converted to the compound of Reference Example 2-6
- Residual rate (%) Human plasma (human plasma): 29%

SMILES: Cl.N[C@H](CF)[C@H]1CC[C@H](C(=O)N2CC[C@@H](C3CCCCC3)[C@H]2C(=O)Nc2ccc3c(c2)cc2n3C(CF)(CF)OC2=O)CC1 [Example 6, (3S)-1-({trans-4-[(1S)-1-amino-2-fluoroethyl]cyclohexyl}carbonyl)-N-[3,3-bis(fluoromethyl)-1-oxo-1H-[1,3]oxazolo[3,4-a]indol-7-yl]-3-cyclohexyl-L-prolinamide hydrochloride]
- Residual rate (%) Human liver S9 [3]: 67%
- Metabolite formed (conversion by metabolism) [4, 11]: converted to the compound of Reference Example 2-6
- Residual rate (%) Human plasma (human plasma): 7.9%

SMILES: CO[C@H]1CC[C@H]([C@@H]2CCN(C(=O)[C@H]3CC[C@H]([C@H](N)CF)CC3)[C@@H]2C(=O)Nc2ccc3c(c2)cc2n3C(C)(C)OC2=O)CC1.Cl [Example 10, (3S)-1-({trans-4-[(1S)-1-amino-2-fluoroethyl]cyclohexyl}carbonyl)-N-(3,3-dimethyl-1-oxo-1H-[1,3]oxazolo[3,4-a]indol-7-yl)-3-(trans-4-methoxycyclohexyl)-L-prolinamide hydrochloride]
- Residual rate (%) Human liver S9 [3]: 98%
- Metabolite formed (conversion by metabolism) [4, 11]: converted to the compound of Example 24
- Residual rate (%) Human plasma (human plasma): 6.7%

- Residual rate (%) Human liver S9 [3]: 69%
- Metabolite formed (conversion by metabolism) ([4]; human, 20 min, 1 μmol/L): converted to the compound of Example 24
- Residual rate (%) Human plasma (human plasma): 21%
SMILES: CO[C@H]1CC[C@H]([C@@H]2CCN(C(=O)[C@H]3CC[C@H]([C@H](N)CF)CC3)[C@@H]2C(=O)Nc2ccc3c(c2)cc2n3C(CF)(CF)OC2=O)CC1 [Example 13, (3S)-1-({trans-4-[(1S)-1-amino-2-fluoroethyl]cyclohexyl}carbonyl)-N-[3,3-bis(fluoromethyl)-1-oxo-1H-[1,3]oxazolo[3,4-a]indol-7-yl]-3-(trans-4-methoxycyclohexyl)-L-prolinamide]

- Residual rate (%) Human liver S9 [3]: 47%
- Metabolite formed (conversion by metabolism) ([4]; human, 20 min, 1 μmol/L): converted to the compound of Example 24
- Residual rate (%) Human plasma (human plasma): <1%
SMILES: CO[C@H]1CC[C@H]([C@@H]2CCN(C(=O)[C@H]3CC[C@H]([C@H](N)CF)CC3)[C@@H]2C(=O)Nc2ccc3c(c2)cc2n3C3(CCC3)OC2=O)CC1 [Example 14, (3S)-1-({trans-4-[(1S)-1-amino-2-fluoroethyl]cyclohexyl}carbonyl)-3-(trans-4-methoxycyclohexyl)-N-(1′-oxo-1′H-spiro[cyclobutane-1,3′-[1,3]oxazolo[3,4-a]indol]-7′-yl)-L-prolinamide]

- IC50 (Human FXIa; [12]): 3 nM
SMILES: NC[C@H]1CC[C@H](C(=O)N2CC[C@@H](C3CCCCC3)[C@H]2C(=O)Nc2ccc3[nH]c(C(=O)O)cc3c2)CC1 [Example 23]

- IC50 (Human FXIa; [12]): 19 nM
SMILES: N[C@H](CF)[C@H]1CC[C@H](C(=O)N2CC[C@@H](N3CCCCC3)[C@H]2C(=O)Nc2ccc3[nH]c(C(=O)O)cc3c2)CC1 [Example 25, 5-[(2S,3R)-1-({trans-4-[(1S)-1-Amino-2-fluoroethyl]cyclohexyl}carbonyl)-3-(piperidin-1-yl)pyrrolidine-2-carboxamide]-1H-indole-2-carboxylic acid 2-trifluoroacetate]

SMILES: NC(CF)[C@H]1CC[C@H](C(=O)N2CC[C@@H](C3CCCCC3)[C@H]2C(=O)Nc2ccc3[nH]c(C(=O)O)c(F)c3c2)CC1 (some centres unmarked) [Reference Example 36]
- IC50 (Human FXIa; [12]): 45 nM

- IC50 (Human FXIa; [12]): 91 nM
SMILES: CCc1c(C(=O)O)[nH]c2ccc(NC(=O)[C@@H]3[C@H](C4CCCCC4)CCN3C(=O)[C@H]3CC[C@H]([C@H](N)CF)CC3)cc12 [Reference Example 42]

SMILES: N[C@H](CF)[C@H]1CC[C@H](C(=O)N2CC[C@@H](C3CCCCC3)[C@H]2C(=O)Nc2ccc3[nH]c(C(=O)O)c(Cl)c3c2)CC1 [compound 37]
- IC50 (Human FXIa): 18 nM

SMILES: NC(CF)[C@H]1CC[C@H](C(=O)N2CC[C@@H](c3ccc(F)cc3)[C@H]2C(=O)Nc2ccc3[nH]c(C(=O)O)cc3c2)CC1 (some centres unmarked) [compound 38]
- IC50 (Human FXIa; [12]): 30 nM

SMILES: Cc1c(C(=O)O)[nH]c2ccc(NC(=O)[C@@H]3[C@H](C4CCCCC4)CCN3C(=O)[C@H]3CC[C@H]([C@H](N)CF)CC3)cc12 [compound 39]
- IC50 (Human FXIa; [12]): 145 nM

SMILES: NC[C@H]1CC[C@H](C(=O)N2CC[C@@H](c3ccccc3)[C@H]2C(=O)Nc2ccc3[nH]c(C(=O)O)cc3c2)CC1 [compound 40]
- IC50 (Human FXIa; [12]): 9 nM

SMILES: COc1ccc([C@H]2CCN(C(=O)[C@H]3CC[C@H]([C@H](N)CF)CC3)[C@@H]2C(=O)Nc2ccc3[nH]c(C(=O)O)cc3c2)cc1 [compound 43]
- IC50 (Human FXIa; [12]): 76 nM

SMILES: N[C@H](CF)[C@H]1CC[C@H](C(=O)N2CC[C@H](c3ccc(F)cc3)[C@H]2C(=O)Nc2ccc3[nH]c(C(=O)O)cc3c2)CC1 [compound 44]
- IC50 (Human FXIa; [12]): 33 nM

SMILES: N[C@H](CF)[C@H]1CC[C@H](C(=O)N2CC[C@H](c3ccccc3)[C@H]2C(=O)Nc2ccc3[nH]c(C(=O)O)c(Cl)c3c2)CC1 [compound 45]
- IC50 (Human FXIa; [12]): 60 nM
